Columns and labels:
[1] = Single dose toxicity study in rats; assay type: in vivo; conditions: for ALP (Hepatic), Mean / ALT (Hepatic), Mean / AST (Hepatic), Mean / Creatinine (Renal), Mean / Hemoglobin (Anemia), Mean / Neutrophil (Neutropenia), Mean / Platelet (Thrombocytopenia), Mean: rat, in vivo
Description: Further, Compound 1 was also tested for safety end point evaluation in rats. […] Doses of 44 mg/kg, 88 mg/kg and 176 mg/kg were tested and 176 mg/kg was LTD.

4T1 tumors = test: 4T1 breast tumors in mice in vivo; design: species or system BALB/c mice
4T1 cells [2] = test: Intracellular distribution of platinum and intact drug in 4T1 cells (AAS, RPHPLC); assay type: cell-based; conditions: 50 μM
Description: The remaining insoluble proteins were resuspended in RIPA lysis buffer. The leftover genomic DNA (gDNA) pellet was treated with methanol to dissociate any non-covalently bound platinum from the gDNA. All the fractions were assayed by atomic absorption spectroscopy (AAS) to determine their Pt content. […] Data was generated from three independent biological experiments and error represents standard error of mean.

[3] = Pharmacokinetics after single i.v. bolus in tumor bearing mice; assay type: in vivo, female Balb/c mice; conditions: plasma, LC-MS/MS, noncompartmental analysis
Description: The pharmacokinetic (PK) profile of Compound 1 was evaluated following single intravenous (i.v bolus) dosing in tumor bearing female Balb/c mice. Tumor and plasma samples were collected at various time points, sparse sampling (n=3). Plasma concentrations were determined using LC-MS/MS and later subjected to Phoenix WinNonlin Noncompartmental analysis and PK parameters were estimated.

CMTR2 [4] = molecular target: T1, CMTR2 (Mus musculus, UniProt Q8BWQ4); test: Proteomics target identification (anti-cholesterol IP and chemical pulldown) from 4T1 lysate; assay type: binding
T1 construct: endogenous in cells; host or cells: 4T1 cells (lysate)
T1 sequence (Q8BWQ4 1-767): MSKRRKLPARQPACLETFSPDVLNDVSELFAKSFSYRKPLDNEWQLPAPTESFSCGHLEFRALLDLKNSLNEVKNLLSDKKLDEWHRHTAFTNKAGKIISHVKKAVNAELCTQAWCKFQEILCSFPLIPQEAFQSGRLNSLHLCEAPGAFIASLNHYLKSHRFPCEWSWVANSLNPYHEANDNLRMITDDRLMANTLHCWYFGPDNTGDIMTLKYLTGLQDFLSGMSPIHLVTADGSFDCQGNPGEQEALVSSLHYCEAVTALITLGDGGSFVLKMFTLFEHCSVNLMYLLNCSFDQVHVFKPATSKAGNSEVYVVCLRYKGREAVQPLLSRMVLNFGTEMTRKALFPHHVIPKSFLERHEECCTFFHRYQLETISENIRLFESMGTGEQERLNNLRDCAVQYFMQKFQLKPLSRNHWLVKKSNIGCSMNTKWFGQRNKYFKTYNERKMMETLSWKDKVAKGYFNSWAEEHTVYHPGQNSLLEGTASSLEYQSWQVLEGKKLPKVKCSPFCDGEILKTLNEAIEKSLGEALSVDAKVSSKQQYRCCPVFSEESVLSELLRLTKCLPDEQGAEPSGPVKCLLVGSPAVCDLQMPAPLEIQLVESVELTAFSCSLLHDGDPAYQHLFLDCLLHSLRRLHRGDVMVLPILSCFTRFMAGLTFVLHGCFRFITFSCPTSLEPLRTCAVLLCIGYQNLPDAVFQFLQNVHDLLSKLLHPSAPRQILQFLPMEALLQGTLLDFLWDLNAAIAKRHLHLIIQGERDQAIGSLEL
Description: (§1) Cap-specific mRNA (nucleoside-2′-O-)-methyltransferase 2 (CMTR2) is an enzyme that methylates at the 2′-O position of the second transcribed nucleotide of mRNAs.
In this example, two different proteomics approach were used to identify the target of Compound 1: (i) an anti-drug antibody (binds to cholesterol in Compound 1) and (ii) Compound A-1, where both (i) and (ii) were used to precipitate targets from 4T1 lysates. The 4T1 cell lysate was treated with pegylated Compound 1 for 20 hours. The 4T1 cells lysate was, independently, combined with the proteins of Table A or treated with Compound 1 and then combined with the proteins of Table A. Precipitated proteins were digested into peptides and identified using LC-MS/MS. Table A provides a summary of the proteins identified from both approaches that were enriched in Compound 1 samples above the background.

4T1 cells [5] = test: CMTR2 levels in 4T1 cells upon treatment; assay type: cell-based
From the text: as §1
Alternatively, the unmethylated mRNA could also be recognized by toll-like receptors (TLR) like TLR3. Both of these would trigger many interferon regulatory factors (IRFs) leading to a type-I interferon antiviral response. The interferons can induce interferon stimulated genes (ISGs) such as interferon induced tetratricopeptide repeat protein 1 (IFIT1), which binds to unmethylated mRNA with high affinity. Furthermore, the immune system would be activated by the interferons. Additionally, the unmethylated mRNA could be secreted out from the tumor cells resulting in B-cell activation.

4T1 cells [6] = test: Interferon pathway / anti-viral response in 4T1 cells (RT-q-PCR, iBlot); assay type: cell-based
Description: RT-q-PCR was performed with RNA extracted from 4T1 cells treated with 30 μM of Compound 1 or vehicle for 24 h. […] The result is representative of n=3.
See, FIG. 16. The unmethylated mRNA generated due to inhibition of CMTR2 activity leads to recognition by sensors like MDA5 and TLR3 in conjunction with adapters like TRIF.

Lewis lung carcinoma = test: Immunocompetent Lewis lung carcinoma model; assay type: in vivo, mice
From the text: This model was therefore used to test whether the activation of both T cells, using a PD1 inhibitor, and B cells, using Compound 1, results in synergy. In this experiment, four groups of mice models for immunocompetent Lewis lung carcinoma were utilized. The mice were, independently, intravenously treated with control, Compound 1, anti-PD-1, or Compound 1+ anti-PD-1 and tumor growth monitored for at least 28 days post-tumor induction. The following table describes the treatments utilized in the experiment.

CMTR2 [7] = molecular target: T1, CMTR2; test: Binding of CMTR2 to Compound 1 by ELISA
From the text: as §1

[8] = tumors regressed by 20% on day three

## CC(C)CCC[C@@H](C)[C@H]1CCC2C3CC=C4C[C@@H](OCCN(CC(=O)[O-])CC(=O)[O][Pt+]5[NH][C@@H]6CCCC[C@H]6[NH]5)CC[C@]4(C)C3CC[C@@]21C (stereo partly drawn) [Compound 1]
[1]; 44 mg/kg and 88 mg/kg, single intravenous infusion (30 min)
  Tolerability of the remaining doses: well tolerated without any significant clinical signs
[1]; 44 mg/kg
  ALP (Hepatic), Mean: 107.60 U/L
  ALT (Hepatic), Mean: 30.00 U/L
  AST (Hepatic), Mean: 110.60 U/L
  Creatinine (Renal), Mean: 0.49 mg/dL
  Hemoglobin (Anemia), Mean: 15.84 g/dL
  Neutrophil (Neutropenia), Mean: 0.72 × 10^3 cells/μL
  Platelet (Thrombocytopenia), Mean: 1201.2 × 10^3 cells/μL
[1]; 88 mg/kg
  ALP (Hepatic), Mean: 133.00 U/L
  ALT (Hepatic), Mean: 25.60 U/L
  AST (Hepatic), Mean: 106.00 U/L
  Creatinine (Renal), Mean: 0.49 mg/dL
  Hemoglobin (Anemia), Mean: 14.92 g/dL
  Neutrophil (Neutropenia), Mean: 0.80 × 10^3 cells/μL
  Platelet (Thrombocytopenia), Mean: 1376.2 × 10^3 cells/μL
[1]; 176 mg/kg
  ALP (Hepatic), Mean: 209.5 U/L
  ALT (Hepatic), Mean: 42.50 U/L
  AST (Hepatic), Mean: 141.50 U/L
  Creatinine (Renal), Mean: 0.52 mg/dL
[1]; single intravenous infusion (30 min), both genders
  LTD: 176 mg/kg
4T1 tumors; 88 mg/kg, 2 cycles, T and B-cell knockout (SCID) mice, FIG. 26
  4T1 tumor ablation in mice lacking B cells: 4T1 tumor ablation does not happen in mice lacking B cells
4T1 tumors; 88 mg/kg, 2 cycles, animals with previous tumor regression, FIG. 27
  Tumor growth following re-implantation of cancer cells: No tumor growth occurs
4T1 tumors; 4T1 breast cancer-bearing mice, FIG. 10
  Tumor growth inhibition with increasing doses: clear dose-dependent effect
4T1 tumors; 50% regressed tumors
  Infiltrating immune cells in tumor sections (immunohistology): increased IGKC levels, and increased infiltration of memory B cells (CD20+) and plasma B cells (CD138)
4T1 tumors; FIGS. 8B to 8E
  B cell biomarker transcripts IGKC and CD21 in tumor (RTPCR): increase in IGKC and CD21
  CD8a in tumor (RTPCR): increase in CD8a cells
4T1 tumors; administered on days 1, 2, 6, and 7, female Balb/c mice
  4T1 tumor growth: ablated 4T1 tumors
4T1 tumors; administered on days 1, 2, 6, and 7, up to 29 days post-implantation
  Body weight: without any loss in body weight
4T1 tumors; cumulative dose of 176 mg/kg per cycle, 2 cycles, immunocompetent syngeneic BALB/c mice
  Tumor size of established 4T1 tumors: tumor regression is observed
4T1 tumors; day 3
  % B-cell in tumor by FACS: infiltrating the tumor
4T1 tumors; days 3, 4, 5, and 8
  IFIT1 levels in plasma (dot-blot): elevated on days 3 to 8
  INF-α levels in plasma (dot-blot): elevated in plasma
4T1 tumors; post-regression, spleen following rechallenge
  B cell phenotype by FACS in draining lymph node and spleen: increase in B cells with a reduction in Bregs
4T1 tumors; reinjected with 4T1 cells twenty-five days post-regression, no additional treatment
  Tumor growth post rechallenge with cancer cells (immune memory): absence of any tumor growth
4T1 tumors; [8]
  IFN gene expression in 4T1 tumors: robust increase in expression
  IRF3 and IRF7 gene expression in 4T1 tumors: increased expression is observed for IRF3 and IRF7
4T1 cells [2]
  Intracellular integrity (intact concentration by RPHPLC vs platinum by AAS): remains intact intracellularly
[3]
  Estimated AUC versus dose: increased linearly with dose
CMTR2 [4]; LC-MS/MS of proteins precipitated from 4T1 lysates
  False discovery rate of CMTR2 as lead putative target: less than 1%
CMTR2 [4]; anti-cholesterol IP and chemical pulldown, 4T1 cell lysate
  Binding to CMTR2 by proteomics: binds to CMTR2
4T1 cells [5]
  CMTR2 level in 4T1 cell lysate: dose-dependent upregulation of CMTR2
4T1 cells [6]; 30 μM, 24 h, RT-q-PCR, n=3
  mRNA expression of TLRs, IRF7 and IFN genes: robust increase in expression
4T1 cells [6]; iBlot, FIG. 19A-19B
  Secreted (extracellular) INF-α levels: remarkably high
4T1 cells [6]; iBlot, FIGS. 18A-18B
  Intracellular INF-α levels: significantly elevated
4T1 cells [6]; varying concentration, FIG. 16
  Innate anti-viral response (relative mRNA expression INF-α, IRF7, TRIF, TLR3): activation of the innate anti-viral response in a dose-dependent manner
4T1 cells [6]; varying concentrations, FIG. 17
  IRF7 levels: increased levels in 4T1 cells in a dose-dependent manner
Lewis lung carcinoma; different dose regimens, compared with a MTD dose of oxaliplatin
  Tumor growth: significant tumor growth inhibition
Lewis lung carcinoma; mouse, in vivo
  CD8a levels (immuno-transcripts): no increase was seen in CD8a levels
  Combination effect with PD1 immune checkpoint inhibitor: synergizes with PD1 immune checkpoint inhibitor
  IGKC signal (immuno-transcripts): increase in IGKC signal
CMTR2 [7]
  Binding of CMTR2 by ELISA: confirmed by ELISA

From patent US20220168261A1, “COMPOUNDS AND METHODS FOR MANAGING CANCER THROUGH IMMUNE SYSTEM” (AKAMARA THERAPEUTICS, INC., priority 2019, published 2022)
